Results: patent US5118681A (priority 1989, dated 1992)

Experiments:
E.c = assay: Minimum Inhibitory Concentration Test, alternate (Table 4), E.c; format: cell-based, Escherichia coli; settings: TSB, 72 hours
Procedure: (§1) A 125 μl aliquot of 10,000 ppm test compound in acetone was added to 4.88 ml of TSB to provide a 250 ppm solution. From this solution, 100 μL was transferred to the first row of two microtiter plate columns. Both replicates and five additional compounds were all serially diluted 1:1 to a final concentration of 0.8 ppm in TSB.
(§2) Inoculation was accomplished by diluting a 24 hr Ps fl culture, four mls per 36 mls of phosphate buffer solution. A Dynatech autoinoculator was used to transfer 1.5 μl of this cell suspension to the microtiter plates. The plates were incubated at 30° C. for 3 days before the lowest concentration at which no growth occurs was recorded in the database. The SOK data and MIC test data on Ps.fl, Ps.ae, E.c, and S.a. bacteria and Candida albicans (C.alb), A.n and A.p fungi are listed in Table 4.

Piricularia oryzae = assay: whole plant or invertebrate; format: in vivo; settings: in vivo
[1] = tested on: Pellicularia filamentosa (f. sp. sasiki); assay: whole plant or invertebrate; format: in vivo; settings: in vivo
Ps.ae = assay: Minimum Inhibitory Concentration Test, alternate (Table 4), Ps.ae; format: cell-based, Pseudomonas aerugenosa; settings: TSB, 72 hours
Pseudomonas fluorescens [2] = assay: Minimum Inhibitory Concentration Test, alternate (Table 4), Ps.fl; format: cell-based; settings: TSB, 72 hours, 30° C
Method in brief: (§3)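 Compound in acetone was diluted into TSB and serially diluted 1:1 from 250 ppm down to 0.8 ppm, in duplicate. Plates were inoculated with diluted 24 h culture and incubated 3 days at 30° C; MIC recorded as lowest concentration with no growth.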

Candida albicans (C.alb) = assay: Minimum Inhibitory Concentration Test, alternate (Table 4), C.alb; format: cell-based; settings: TSB, 72 hours
Procedure: as §1, §2

S.a = assay: Minimum Inhibitory Concentration Test, alternate (Table 4), S.a; format: cell-based, Staphylococcus aureus; settings: TSB, 72 hours
Procedure: as §1, §2

[3] = tested on: Pseudoperonospora cubensis; assay: whole plant or invertebrate; format: in vivo; settings: in vivo
Phytophthora infestans = assay: whole plant or invertebrate; format: in vivo; settings: 200 ppm application rate
Pseudomonas fluorescens [4] = assay: Speed of Kill Test, alternate, 24 h, synthetic hard water (Table 4); format: cell-based; settings: Ps.fl in synthetic hard water, 100 ppm
A.n = assay: Minimum Inhibitory Concentration Test, alternate (Table 4), A.n; format: cell-based, Aspergillus niger; settings: TSB, 72 hours
Method in brief: as §3

[5] = tested on: Erysiphe graminis (f. sp. tritici); assay: whole plant or invertebrate; format: in vivo; settings: in vivo

## N-n-octyl-cis-3-{2-[ethyl-N-(2-thiophenylmethyl)malonamido]thio}acrylamide [Example 28]
E.c
  MIC E.c: 500 ppm
Piricularia oryzae
  % control RB: 25%
[1]
  % control RSB: 0%
Ps.ae
  MIC Ps.ae: 500 ppm
Pseudomonas fluorescens [2]
  MIC Ps.fl: 500 ppm
Candida albicans (C.alb)
  MIC C.alb: 63 ppm
S.a
  MIC S.a: 500 ppm
[3]
  % control CDM: 96%
Phytophthora infestans
  % control TLB: 50%
Pseudomonas fluorescens [4]
  SOK: > 100 ppm
A.n
  MIC A.n: 16-31 ppm
[5]
  % control WPM: 0%
